The values that follow come from patent publication US12435062B2, “Amide compounds and uses thereof” (HUTCHISON MEDIPHARMA LIMITED, priority 2020, dated 2025).

Test [1] concerns the target Recombinant human CSF1R kinase (Homo sapiens (Human), UniProt P07333). In kind it is biochemical. As to conditions: Z-LYTE Tyr 1 peptide substrate.
Experimental: Measurement of CSF1R Kinase Activity at Molecular Level
1. Reagents and materials:
• Z-LYTE™ Tyr 1 peptide substrate: Invitrogen, PV3190; • 5× kinase buffer: Invitrogen, PV3189; • 10 mM ATP: Invitrogen, PV3227; • Development reagent B: Invitrogen, PV3295; • Development buffer: Invitrogen, P3127; • Stopping solution: Invitrogen, P3094; • Recombinant human CSF1R kinase: Invitrogen, PR4598A; • 384 well plate, black: Corning, 3575; Envision: Perkin Elmer. 2. Preparation of reaction solutions
1) 1.33× kinase buffer: 5× kinase buffer was diluted to a 1.33× kinase buffer with ddH2O.
2) Dilution of a 4× test compound: The test compound was diluted in gradient to 4-fold the reaction concentration and the concentration of DMSO was kept at 8%. The final concentration of the compound in reaction was: 1, 0.33, 0.11, 0.037, 0.012, 0.004, 0.0014, 0.00046 μM, and the final concentration of DMSO was 2%.
3) A mixture of kinase/peptide substrate: In 1.33× kinase buffer, the kinase and Z-LYTE™ Tyr 1 peptide substrate were diluted to 0.12 μg/mL and 4 μM, respectively, to prepare a mixture of kinase/peptide substrate. The mixture was mixed gently with a pipette.
4) A phosphorylated peptide substrate solution (PP solution): 0.4 μL of Z-LYTE™ Tyr1 phosphorylated peptide substrate was added to 99.6 μL of 1.33× kinase buffer.
5) ATP solution: 10 mM of ATP was diluted to 760 μM with 1.33× kinase buffer to prepare ATP solution.
6) Development solution: Development reagent B was diluted with Development buffer at a ratio of 1:200.
1) Kinase reaction (10 μL system)
2.5 μL of 4× test compound was added to each reaction well of the 384 plate, and the corresponding volume of 8% DMSO was added to the control well. The plate was placed on ice. 5 μL of a mixture of kinase/peptide substrate, 2.5 μL of kinase buffer and ATP solution were successively added to each well. Three control groups were set up: Group C1 contains only kinase buffer, group C2 contains the mixture of kinase/peptide substrate, kinase buffer and ATP, and group C3 contains 5 μL of PP solution. After adding the reaction components, the 384-well plate was sealed and incubated at 25-30° C. for 1 h in dark.
5 μL of Development solution was added to each well, sealed and incubated at 25-30° C. for another 1 h in dark.
3) Reaction stopping and plate reading
5 μL of stopping solution was added to each well. The Coumarin value (excitation at 400 nm, emission at 445 nm) and Fluorescein value (excitation at 400 nm, emission at 520 nm) were measured, respectively.
ER (emission ratio): Coumarin emission read-out (445 nm)/Fluorescein emission read-out (520 nm); • C3 445 nm: 100% phosphorylated Coumarin emission read-out; • C3 520 nm: 100% phosphorylated Fluorescein emission read-out; • C1 445 nm: 0% phosphorylated Coumarin emission read-out; • C1 520 nm: 0% phosphorylated Fluorescein emission read-out. Inhibition rate % (IR)=[1−% phosphorylation ratetest sample/100% phosphorylation ratecontrol]×100%
% phosphorylation ratetest sample: phosphorylation rate of the test compound; • 100% phosphorylation ratecontrol: phosphorylation rate of C3 control group.
5. IC50 values: calculated by using software XL-Fit™ (version 5.3) supplied by ID Business Solutions (Guildford, UK), which is an additional software to Microsoft Excel.
The target of test [2] is CSF1R phosphorylation in THP-1 cells (Homo sapiens (Human), UniProt P07333). Briefly: Detection of CSF1R phosphorylation activity at cell level (THP-1, M-CSF stimulated, ELISA). The class given is cell-based. As to conditions: p-CSF1R ELISA, compound 60 min, 300 ng/mL M-CSF 1 min. The method, then: Detection of CSF1R Phosphorylation Activity at Cell Level
THP-1 (ATCC), human acute monocytic leukemia cells. The cells were cultured in an RPMI 1640 medium containing 10% FBS.
(§1) 2. Reagents and instruments
• Human phosphorylation-CSF1R ELISA kit: R&D, #DYC3268-2; • RPMI 1640 culture solution: GIBCO, 910491; • Human M-CSF recombinant cytokine: R&D, 9216-MC-500; • Cell lysis buffer: Cell Signal, 99803S; • 1×PBS buffer (1 L): 8.0 g of NaCl, 0.2 g of KCl, 3.58 g of Na2HPO4-12H2O, 0.24 g of KH2PO4 were dissolved in 1 L of dd H2O, and the pH was adjusted to 7.4; • Blocking solution: PBS buffer containing 1% BSA; • PBST washing liquid: PBS buffer containing 0.05% Tween-20; • Chromogenic substrate: R&D, #DY999; • 2N H2SO4; • Microwell plate reader: Labsystems Multiskan K3: Thermo; Envision: Perkin Elmer; • ELISA plate: Corning, #9018; • Cell culture plate: Facol, #353027. 3. Treatment of cells and preparation of lysis buffer
THP-1 cells were resuspended in RPMI-1640 culture solution containing 2% FBS, and the culture was added to a 96-well plate at a density of 5×10^4/well, 50 μL/well, and cultured in a cell incubator at 5% CO2 and 37° C. overnight; The test compound was diluted with a serum-free RPMI-1640 medium to 3, 1.1, 0.37, 0.12, 0.04, 0.014, 0.005 and 0.002 μM, and the concentration of DMSO was 5%. 5 μL of the diluted compound was added to the 50 μL cell culture system, the culture was cultured in a 5% CO2, 37° C. cell incubator for 60 min, 300 ng/mL of M-CSF was added to the cells, and the mixture was stimulated in the 37° C. cell incubator for 1 min, added 50 μL of cell lysis buffer, and stored in a refrigerator at −80° C.
100 μL/well of the p-CSF1R capture antibody diluted to 0.8 μg/mL with PBS was added to the ELISA plate, and the plate was coated on a shaker at room temperature overnight. The culture was washed with PBST, and then added blocking solution and incubated at room temperature for 2 h. The culture was washed with PBST, added 90 μL of cell lysis buffer, and incubated on a shaker at 25° C. for 2 h. The plate was washed with PBST three times, added 100 μL of anti-p-tyrosine-HRP detection antibody diluted with 0.1% PBS-BSA diluent, and incubated on a shaker at 25° C. for 2 h. The plate was washed with PBST washing liquid, added 100 μL of chromogenic substrate and incubated at room temperature for 10-20 min. The reaction was stopped by adding 50 μL of 2N H2SO4. The optical density signal (450/570 nm) of each well was detected in Labsystems Multiskan K3 or Envision.
wherein • Drug-treated well read-out: indicating the optical density signal of a cell well with the test compound treatment. • Background read-out: indicating the optical density signal of a well without cells but with cell lysis buffer. • Cell well read-out: indicating the optical density signal of a cell well not treated with the compound. 6. Calculation of IC50: obtained by using XL-Fit 5.3 software. 7. Test results
A general note: An ELISA detects its analyte on a solid surface through an enzyme-linked reagent.

Another test relates to Ba/F3^BCR-FMS-11 cells. In words: Cell proliferation experiment (Ba/F3^BCR-FMS-11, cckit-8). To be noted: Mus musculus, Ba/F3^BCR-FMS-11 cell proliferation. The class given is cell-based, mouse. The method, then:
Cell Proliferation Experiment
Ba/F3^BCR-FMS-11, mouse primary B lymphocytes stably expressing the BCR-FMS fusion gene. The cells were cultured in an RPMI 1640 medium containing 10% FBS.
as §1
• cckit-8 kit: Dojindo, 9 CK04; • Envision: Perkin Elmer; • Cell culture plate: Facol, 9353027. 3. Experimental steps
The BCR-FMS fusion gene was transfected into Ba/F3 cells, and the cell line Ba/F3^BCR-FMS-11 that stably expresses BCR-FMS and grows depending on CSF-1R was screened. Ba/F3^BCR-FMS-11 cell proliferation experiments is completed by using the Cell Counting kit cckit-8 in a 96-well plate. In a 96-well plate, 5000/well of Ba/F3^BCR-FMS-11 cells were inoculated at 100 μL/well. […] 10 μL of the compound dilutions with the above 8 concentrations were added to the culture cell wells. The culture was incubated in a 37° C. and 5% CO2 cell incubator for 72 hours. 10 μL of Cell Counting kit cckit-8 detection reagent was added to each well, and incubated at 37° C. and 5% CO2 in a cell incubator for another 1 h. The optical density absorption value at 450 nm of each well was detected by using Perkin Elmer Envision instrument.
wherein • Drug-treated well read-out: indicating the optical density signal of a cell well with the test compound treatment. • Cell well read-out: indicating the optical density signal of a cell well not treated with the test compound (only 0.5% DMSO). • Background read-out: indicating the optical density signal of a well with the cell medium. 5. Calculation of IC50: obtained by using XL-Fit 5.3 software. 6. Test results

Chain of Recombinant human CSF1R kinase (P07333 20-972): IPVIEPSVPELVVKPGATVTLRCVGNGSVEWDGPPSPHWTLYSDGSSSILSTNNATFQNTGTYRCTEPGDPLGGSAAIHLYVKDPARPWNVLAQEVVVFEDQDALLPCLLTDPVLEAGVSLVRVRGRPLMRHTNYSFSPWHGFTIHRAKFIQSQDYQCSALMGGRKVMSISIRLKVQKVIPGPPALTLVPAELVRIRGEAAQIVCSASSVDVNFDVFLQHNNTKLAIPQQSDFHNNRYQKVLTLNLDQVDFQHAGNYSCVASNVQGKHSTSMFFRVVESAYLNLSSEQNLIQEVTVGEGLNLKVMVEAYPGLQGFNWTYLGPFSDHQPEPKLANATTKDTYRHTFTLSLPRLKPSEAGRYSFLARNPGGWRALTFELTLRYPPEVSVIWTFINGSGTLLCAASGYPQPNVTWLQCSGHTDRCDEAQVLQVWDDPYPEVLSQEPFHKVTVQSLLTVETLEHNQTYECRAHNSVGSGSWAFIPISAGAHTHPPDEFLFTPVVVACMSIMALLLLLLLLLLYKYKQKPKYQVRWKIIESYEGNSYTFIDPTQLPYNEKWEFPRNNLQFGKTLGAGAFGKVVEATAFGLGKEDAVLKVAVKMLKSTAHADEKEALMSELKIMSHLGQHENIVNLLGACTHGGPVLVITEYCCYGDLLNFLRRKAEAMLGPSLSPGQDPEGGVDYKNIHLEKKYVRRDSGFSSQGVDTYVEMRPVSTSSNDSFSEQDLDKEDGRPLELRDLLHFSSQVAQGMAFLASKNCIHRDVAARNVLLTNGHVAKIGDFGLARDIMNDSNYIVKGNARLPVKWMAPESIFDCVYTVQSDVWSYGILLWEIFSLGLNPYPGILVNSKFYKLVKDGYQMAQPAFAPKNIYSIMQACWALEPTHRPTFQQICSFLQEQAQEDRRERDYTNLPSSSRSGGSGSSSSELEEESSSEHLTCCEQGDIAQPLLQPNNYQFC
Chain of CSF1R phosphorylation in THP-1 cells (P07333 20-972): as above

As a reminder, the IC50 is the point on the concentration scale where inhibition reaches its midpoint. On to `Cc1c(F)cc(C(=O)Nc2ccc(Oc3ccnc(Nc4ccnn4C)c3)cn2)c(=O)n1C` [Compound 76], for which the IC50 in test [1] was 5 nM; in test [2] it was 18 nM; in the test with Ba/F3^BCR-FMS-11 cells (72 h), 4 nM.
As for `Cc1ncc(C(=O)Nc2ccc(Oc3ccnc(-c4ccccc4)c3)cn2)c(=O)n1C` [Compound 51], the concentration for half-maximal inhibition (IC50) in test [1] came out at 56 nM; in test [2], 67 nM; in the test on Ba/F3^BCR-FMS-11 cells (72 h), 97 nM.
For the compound `Cn1cc(-c2cc(Oc3ccc(NC(=O)c4ccc(C(F)(F)F)n(C)c4=O)nc3)ccn2)cn1` [Compound 90], the IC50 in test [1] stood at 6 nM; in test [2], 10 nM; in the test with Ba/F3^BCR-FMS-11 cells (72 h) it was 2 nM.
For `Cn1cc(Nc2cc(Oc3ccc(NC(=O)c4cccn(C)c4=O)nc3)ccn2)cn1` [Compound 97] the same measures were 18 nM, 7 nM and 15 nM.
In the case of `CC(C)n1cc(Cl)cc(C(=O)Nc2ccc(Oc3ccnc(-c4cnn(C)c4)c3)cn2)c1=O` [Compound 57], the IC50 turned out to be 24 nM in test [1], 43 nM in test [2] and 12 nM in the test with Ba/F3^BCR-FMS-11 cells (72 h).
Consider `Cc1ncc(C(=O)Nc2ccc(Cc3ccnc(-c4cnn(C)c4)c3)cn2)c(=O)n1C` [Compound 123, 1,2-dimethyl-N-(5-((2-(1-methyl-1H-pyrazol-4-yl)pyridin-4-yl)methyl)pyridin-2-yl)-6-oxo-1,6-dihydropyrimidine-5-carboxamide], for which the results for the half-maximal inhibitory concentration (IC50) (in test [1]; in test [2]; in the test with Ba/F3^BCR-FMS-11 cells (72 h)) were 19 nM, 16 nM and 25 nM, respectively.
Turning to `CC(C)n1nccc(C(=O)Nc2ccc(Oc3ccnc(-c4cnn(C)c4)c3)cn2)c1=O` [Compound 60], the half-maximal inhibitory concentration (IC50) was 8 nM in test [1], 14 nM in test [2] and 15 nM in the test with Ba/F3^BCR-FMS-11 cells (72 h).
In the case of `Cc1cc(C(=O)Nc2ccc(Oc3ccnc(-c4ccn(C)c4)c3)cn2)c(=O)n(C)c1` [Compound 124], the half-inhibitory concentration (IC50) came out at 16 nM in test [1], 19 nM in test [2] and 11 nM with Ba/F3^BCR-FMS-11 cells (72 h).
Consider `CN(C)CCn1cccc(C(=O)Nc2ccc(Oc3ccnc(-c4cnn(C)c4)c3)cn2)c1=O` [Compound 81, 1-(2-(dimethylamino)ethyl)-N-(5-((2-(1-methyl-1H-pyrazol-4-yl)pyridin-4-yl)oxy)pyridin-2-yl)-2-oxo-1,2-dihydropyridine-3-carboxamide], for which the half-maximal inhibitory concentration (IC50) in test [1] is 34 nM; in test [2], 145 nM; with Ba/F3^BCR-FMS-11 cells (72 hours), 143 nM.
For the compound `Cn1cc(-c2cc(Oc3ccc(NC(=O)c4cnc(CCO)[nH]c4=O)nc3)ccn2)cn1` [Compound 132, 2-(2-hydroxyethyl)-N-(5-((2-(1-methyl-1H-pyrazol-4-yl)pyridin-4-yl)oxy)pyridin-2-yl)-6-oxo-1,6-dihydropyrimidine-5-carboxamide], the IC50 in test [1] turned out to be 198 nM; in test [2] it was 2110 nM; in the test on Ba/F3^BCR-FMS-11 cells (72 h), 1190 nM.
For `Cn1cc(-c2cc(Oc3ccc(NC(=O)c4cc(F)cn(C)c4=O)nc3)ccn2)cn1` [Compound 80], in that order: 4 nM, 3 nM and 5 nM.
For `Cc1cnc(Nc2cc(Oc3ccc(NC(=O)c4cnc(C)n(C)c4=O)nc3)ccn2)s1` [Compound 16] the same measures were 88 nM, 20 nM and 45 nM.
As for `Cn1cc(-c2cc(Oc3cnc(NC(=O)c4cccn(C)c4=O)c(F)c3)ccn2)cn1` [Compound 22], the concentration for half-maximal inhibition (IC50) in test [1] is 11 nM; in test [2], 10 nM; in the test with Ba/F3^BCR-FMS-11 cells (72 h), 14 nM.
For `Cc1cn(-c2cc(Oc3ccc(NC(=O)c4cnc(C)n(C)c4=O)nc3)ccn2)cn1` [Compound 32], in that order: 59 nM, 15 nM and 99 nM.
Take `Cn1cc(-c2cc(Oc3ccc(NC(=O)c4ccc5n(c4=O)CCC5)nc3)ccn2)cn1` [Compound 27]: the IC50 came to 8 nM in test [1], 18 nM in test [2] and 8 nM with Ba/F3^BCR-FMS-11 cells (72 h).
Regarding `Cc1ncc(-c2cc(Oc3ccc(NC(=O)c4cccn(C)c4=O)nc3)ccn2)s1` [Compound 114], the 50% inhibitory concentration (IC50) was 42 nM in test [1], 35 nM in test [2] and 79 nM in the test on Ba/F3^BCR-FMS-11 cells (72 h).
On to `Cc1cc(Oc2ccnc(-c3cnn(C)c3)c2)cnc1NC(=O)c1cccn(C(C)C)c1=O` [Compound 24], for which the IC50 in test [1] turned out to be 30 nM; in test [2], 59 nM; with Ba/F3^BCR-FMS-11 cells (72 h) it was 37 nM.
Regarding `Cn1cc(-c2cc(Oc3ccc(NC(=O)c4cc5ccccc5n(C)c4=O)nc3)ccn2)cn1` [Compound 72], the half-inhibitory concentration (IC50) in test [1] was 14 nM; in test [2], 16 nM; with Ba/F3^BCR-FMS-11 cells (72 h) it was 7 nM.
Turning to `Cc1ncc(C(=O)Nc2ccc(Oc3ccnc(-c4cnn(CCO)c4)c3)cn2)c(=O)n1C` [Compound 113, N-(5-((2-(1-(2-hydroxyethyl)-1H-pyrazol-4-yl)pyridin-4-yl)oxy)pyridin-2-yl)-1,2-dimethyl-6-oxo-1,6-dihydropyrimidine-5-carboxamide], the figures for the half-maximal inhibitory concentration (IC50) (in test [1]; in test [2]; with Ba/F3^BCR-FMS-11 cells (72 h)) were 34 nM, 17 nM and 48 nM, respectively.
For `Cc1nc(-c2cc(Oc3ccc(NC(=O)c4cnc(C)n(C)c4=O)nc3)ccn2)cs1` [Compound 120], in that order: 52 nM, 21 nM and 39 nM.
Consider `Cn1cc(-c2cc(Oc3ccc(NC(=O)c4ccc(N)n(C)c4=O)nc3)ccn2)cn1` [Compound 105, 6-amino-1-methyl-N-(5-((2-(1-methyl-1H-pyrazol-4-yl)pyridin-4-yl)oxy)pyridin-2-yl)-2-oxo-1,2-dihydropyridine-3-carboxamide], for which the figures for the IC50 (in test [1]; in test [2]; in the test with Ba/F3^BCR-FMS-11 cells (72 h)) were 9 nM, 69 nM and 84 nM, respectively.
Take `Cc1ncc(C(=O)Nc2ccc(Oc3ccnc(-c4ccc(F)cc4)c3)cn2)c(=O)n1C` [Compound 50]: the IC50 in test [1] came to 78 nM; in test [2], 54 nM; in the test on Ba/F3^BCR-FMS-11 cells (72 h) it was 112 nM.
For the compound `COc1cc(Oc2ccnc(-c3cnn(C)c3)c2)ccc1NC(=O)c1cccn(C(C)C)c1=O` [Compound 18], the IC50 in test [1] was found to be 13 nM; in test [2], 60 nM; in the test on Ba/F3^BCR-FMS-11 cells (72 h), 57 nM.
For `Cn1cc(-c2cc(Oc3ccc(NC(=O)c4cccn(C)c4=O)nc3)ccn2)cn1` [Compound 85] the same measures were 5 nM, 5 nM and 7 nM.
For the compound `Cc1ccc(C(=O)Nc2ccc(Oc3ccnc(-c4cnn(C)c4)c3)cn2)c(=O)n1C` [Compound 91], the IC50 in test [1] came out at 3 nM; in test [2], 9 nM; in the test with Ba/F3^BCR-FMS-11 cells (72 h) it was 3 nM.
